{"source": "paper PMC3121796", "about": "(PLoS ONE, 2011)", "key": {"[1]": {"details": "cited from earlier work", "description": "It was reported that the cytoplasm of E. coli cells contains high levels of reduced glutathione (approximately 5 mmole/L); therefore, the potential of ..."}, "[2]": {"target": "T1, human Nav1.7 (hNav1.7) (Homo sapiens, UniProt Q15858)", "T1 construct": "expressed in transfected cells; host or cells: HEK293", "T1 sequence (Q15858 whole entry)": "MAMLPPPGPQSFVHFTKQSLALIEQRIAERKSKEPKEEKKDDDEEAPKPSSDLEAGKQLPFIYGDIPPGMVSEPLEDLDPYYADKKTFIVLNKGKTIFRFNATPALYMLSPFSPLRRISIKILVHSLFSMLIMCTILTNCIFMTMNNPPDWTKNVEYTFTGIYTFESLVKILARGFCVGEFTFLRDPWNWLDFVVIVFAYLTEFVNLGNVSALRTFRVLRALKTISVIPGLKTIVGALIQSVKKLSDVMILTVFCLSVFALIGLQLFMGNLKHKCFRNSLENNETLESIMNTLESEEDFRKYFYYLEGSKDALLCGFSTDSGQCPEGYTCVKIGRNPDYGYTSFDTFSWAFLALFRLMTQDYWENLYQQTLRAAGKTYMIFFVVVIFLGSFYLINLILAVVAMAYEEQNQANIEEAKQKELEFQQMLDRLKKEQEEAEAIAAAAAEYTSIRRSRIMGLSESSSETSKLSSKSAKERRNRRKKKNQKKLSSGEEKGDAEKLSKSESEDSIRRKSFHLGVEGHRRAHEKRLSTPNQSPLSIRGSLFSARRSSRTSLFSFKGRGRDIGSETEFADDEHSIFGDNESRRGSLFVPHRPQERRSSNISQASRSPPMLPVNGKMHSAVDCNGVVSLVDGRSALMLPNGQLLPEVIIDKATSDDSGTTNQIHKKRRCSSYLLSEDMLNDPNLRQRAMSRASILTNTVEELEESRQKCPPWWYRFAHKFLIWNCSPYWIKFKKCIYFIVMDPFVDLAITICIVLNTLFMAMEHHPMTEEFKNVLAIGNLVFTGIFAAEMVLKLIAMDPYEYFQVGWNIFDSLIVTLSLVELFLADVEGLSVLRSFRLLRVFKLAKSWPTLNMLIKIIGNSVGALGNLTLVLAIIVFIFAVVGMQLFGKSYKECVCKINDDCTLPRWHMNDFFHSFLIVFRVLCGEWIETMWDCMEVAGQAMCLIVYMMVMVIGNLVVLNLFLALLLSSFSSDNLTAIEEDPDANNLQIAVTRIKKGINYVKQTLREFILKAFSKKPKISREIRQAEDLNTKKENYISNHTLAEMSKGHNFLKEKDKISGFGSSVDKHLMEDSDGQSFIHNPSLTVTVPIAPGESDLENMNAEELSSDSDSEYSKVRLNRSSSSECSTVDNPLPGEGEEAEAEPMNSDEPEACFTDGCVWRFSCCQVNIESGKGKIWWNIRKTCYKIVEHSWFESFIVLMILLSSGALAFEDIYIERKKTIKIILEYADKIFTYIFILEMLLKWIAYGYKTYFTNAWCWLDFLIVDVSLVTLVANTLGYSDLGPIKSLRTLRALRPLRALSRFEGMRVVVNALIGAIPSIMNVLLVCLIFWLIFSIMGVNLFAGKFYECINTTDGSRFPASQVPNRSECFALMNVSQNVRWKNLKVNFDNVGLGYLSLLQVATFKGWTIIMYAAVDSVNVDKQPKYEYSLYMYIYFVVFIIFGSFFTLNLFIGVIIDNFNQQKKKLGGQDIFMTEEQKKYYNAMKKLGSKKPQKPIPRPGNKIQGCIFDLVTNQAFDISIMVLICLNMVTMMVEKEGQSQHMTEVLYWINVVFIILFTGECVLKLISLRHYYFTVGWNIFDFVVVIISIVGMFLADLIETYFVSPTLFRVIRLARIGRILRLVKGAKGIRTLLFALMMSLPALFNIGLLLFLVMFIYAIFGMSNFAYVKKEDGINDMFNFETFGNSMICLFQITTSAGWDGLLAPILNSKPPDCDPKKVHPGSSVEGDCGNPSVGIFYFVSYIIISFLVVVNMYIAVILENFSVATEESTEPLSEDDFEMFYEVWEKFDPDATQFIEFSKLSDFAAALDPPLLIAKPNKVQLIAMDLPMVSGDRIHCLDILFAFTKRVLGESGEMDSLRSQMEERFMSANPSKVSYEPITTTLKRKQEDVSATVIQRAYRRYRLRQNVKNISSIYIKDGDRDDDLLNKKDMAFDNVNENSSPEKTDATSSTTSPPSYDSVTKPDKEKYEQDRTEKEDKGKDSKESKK", "assay": "whole-cell patch-clamp assay, inhibition of hNav1.7 currents", "format": "cell-based", "details": "1 µmole/L toxin, HEK293 cells expressing hNav1.7, depolarization to −10 mV, room temperature, one range given for both toxins"}}, "note": "Positions of bridges follow the written chain, without caps; N, C: chain ends. Residues, ends and D or L forms follow the SMILES beside them. No end group written: not given here."}
{"compound": "rHWTX-I (baculovirus): earlier rHWTX-I expressed in a baculovirus system (ACKGVFDACTPGKNECCPNRVCSDKHKWCKWKL; ends and bridges not checked; cysteine pairing not given here; UniProt P56676 49-81, looked up)", "values": [{"measurement": "bioactivity of baculovirus-expressed peptide", "setting": "[1]; baculovirus system, ref [11]", "result": "demonstrated natural bioactivities"}]}
{"compound": "CC(C)C[C@H](NC(=O)[C@H](CCCCN)NC(=O)[C@H](Cc1c[nH]c2ccccc12)NC(=O)[C@H](CCCCN)NC(=O)[C@@H]1CSSC[C@@H]2NC(=O)[C@H](CCC(=O)O)NC(=O)[C@H](CC(N)=O)NC(=O)[C@H](CCCCN)NC(=O)CNC(=O)[C@@H]3CCCN3C(=O)[C@H]([C@@H](C)O)NC(=O)[C@@H]3CSSC[C@H](NC(=O)[C@H](C(C)C)NC(=O)[C@H](CCCNC(=N)N)NC(=O)[C@H](CC(N)=O)NC(=O)[C@@H]4CCCN4C(=O)[C@H](CSSC[C@H](NC(=O)[C@H](C)N)C(=O)N[C@@H](CCCCN)C(=O)NCC(=O)N[C@@H](C(C)C)C(=O)N[C@@H](Cc4ccccc4)C(=O)N[C@@H](CC(=O)O)C(=O)N[C@@H](C)C(=O)N3)NC2=O)C(=O)N[C@@H](CO)C(=O)N[C@@H](CC(=O)O)C(=O)N[C@@H](CCCCN)C(=O)N[C@@H](Cc2c[nH]cn2)C(=O)N[C@@H](CCCCN)C(=O)N[C@@H](Cc2c[nH]c3ccccc23)C(=O)N1)C(=O)O", "note": "[rHWTX-I] (H-ACKGVFDACTPGKNECCPNRVCSDKHKWCKWKL-OH; disulfide 2-17, 9-22, 16-29)", "values": [{"measurement": "hNav1.7 current reduced to (remaining current)", "setting": "[2]", "result": "33–36%"}]}
{"compound": "rHWTX-I (GST or KIS fusion, cytoplasm): earlier rHWTX-I expressed fused with GST or ketosteroid isomerase (KIS) in the cytoplasm of E. coli cells (ACKGVFDACTPGKNECCPNRVCSDKHKWCKWKL; not fully specified; cysteine pairing not given here; UniProt P56676 49-81, looked up)", "values": [{"measurement": "bioactivity after release by enzyme digestion", "setting": "[1]; GST fusion expressed in cytoplasm of E. coli, no disulfide bridge formed, ref [8]", "result": "very low bioactivity"}, {"measurement": "bioactivity after reduction/renaturation", "setting": "[1]; released from GST or KIS fusion protein expressed in cytoplasm of E. coli, after reduction/renaturation treatment, ref [8], [9]", "result": "fully restore the bioactivities"}, {"measurement": "bioactivity before reduction/renaturation", "setting": "[1]; released from GST or KIS fusion protein expressed in cytoplasm of E. coli, before reduction/renaturation treatment, ref [8], [9]", "result": "extremely low bioactivity"}]}
